Where two headings read alike, the source gives them in different places.
Experiments:
S. mansoni schistosomula [1] = experiment: Larval HTS and larval dose response (image-based phenotype and motility of schistosomula); type: cell-based, Schistosoma mansoni; design: Motility score: scale not given here; details: 10μM control wells, -AMP-B
[2] = tested on: S. mansoni juvenile worms; experiment: Juvenile worm assay (3 week old worms), single point and dose response; type: cell-based; details: Schistosoma mansoni
Description: (§1) For production of S. mansoni juvenile or adult worms, mice were infected subcutaneously under mild isoflurane (Merial Animal Health Ltd (UK)) anaesthesia with, respectively 1400 (for juveniles) or 450 cercariae (for adults). Worms were recovered from infected mice using sterile techniques by portal perfusion 3 weeks (for juveniles) or 6 weeks (for adults) post-infection using warm perfusion medium (Dulbecco’s Modified Eagle’s Medium [DMEM], 2mM L-glutamine, 100 Units/ml penicillin, 100μg/ml streptomycin, 20mM Hepes, 10 Units/ml heparin [Sigma, UK] [8]. Adult worms were washed free of red blood cells using the perfusion medium, and finally placed in culture in complete medium (cDMEM: DMEM, 2mM L-glutamine, 100 Units/ml penicillin, 100μg/ml streptomycin, 10% foetal calf serum (FCS) at 37°C, in an atmosphere of 5% CO2. Juvenile worms were sedimented successively following washing with cold perfusion medium and then suspended in cold cDMEM until dispensed to avoid attachment to the plastic tubes.
(§2) For the juvenile assay the concentration of worms was adjusted to 40/ml cDMEM and, prior to dispensing, the suspension was cooled on ice to prevent adherence of the worms to the plastic bottles. After swirling to resuspend worms,150μL of suspension was added to the wells of 96 well microtitre plates (Nunc, Thermo Fisher Scientific, UK). Wells were quickly checked and those with <5 worms were marked. The remainder were made up to 200μL and the deficient wells topped up with a worm suspension to ensure that all wells had ≥5 worms. The adult worm assay was as described in [8] except that 1ml cultures containing 3 worm pairs were generally used. Both the juvenile and adult worm assays were assessed for activity on days +1 and +5. Drug effects were determined by assessing the viability of individual worms and calculating the mean percentage inhibition, a hit being defined as ≥70% reduction in viability.
(§3) The primary HTS and subsequent juvenile and adult screens were run as single point (SP) assays at 10–12.5μM depending on the concentrations in the compound collections. Compounds were tested in duplicate. Where necessary, repeat testing was carried out on re-supplied liquid samples. All compounds of interest were re-tested as solid compounds or by repeat synthesis and activity confirmed.
(§4) Compounds with activity against all three parasite stages were tested in parallel dose response (DR) assays against juvenile worms and MRC-5 cells. Promising compounds were then tested in the adult DR. For the parasite DR (larvae, juveniles and adults) the concentrations tested were two fold dilutions starting from 2x the primary screening concentrations (i.e. 20–25μM).
(§5) IC50 values were calculated from the drug concentration–response curves using Microsoft XLfit version 5.1.0.0 (2006–2008 ID Business Solutions Ltd). Results were expressed as the geometric mean IC50.

[3] = Cytotoxicity assay (Alamar blue); type: cell-based; details: human
Description: Activity against mammalian cells was determined using MRC-5 cells. Cells were maintained in Minimum Essential Medium supplemented with glutamax (Gibco, UK), 1% non-essential amino acids (Gibco, UK) and 10% Foetal bovine serum (Gibco, UK). They were harvested by treatment with 0.25% Trypsin-EDTA for 3 minutes and diluted to 1x10^5/ml. 100μl aliquots of the cell suspension were then plated in 96 well plates (Nunc, Thermo Fisher Scientific, UK). The plates were left to incubate for 24 hours at 37°C and 5% CO2 in a humidified incubator. Cytotoxicity DR assays were set up 24 hours post incubation at 5% CO2 and 37°C, with compounds prepared at 3-fold dilutions starting from 50μM. Dilutions were added to the cells such that the final % DMSO/well was 0.5%. Each drug concentration was tested in duplicate. On each 96 well plate there were negative control wells of media only, MRC-5 cells only and MRC-5 cells with 0.5% DMSO. For positive control wells doxorubicin hydrochloride (Sigma-Aldrich, UK) was added to the cells at 100μM concentration. The cultures were then maintained for a further 72 hours at 37°C and 5% CO2. Drug cytotoxicity was determined using the redox indicator Alamar blue (AbD Serotec, UK). 10μl of Alamar Blue was added to each well and the plates incubated for 4 hours at 37°C and 5% CO2 atmosphere. The fluorescence intensity was measured using a Spectramax Gemini plate reader (Molecular Devices, UK) using an excitation wavelength of 530 nm and an emission wavelength of 580 nm.
as §5

S. mansoni adult worms = experiment: Adult worm assay, single point and dose response; type: cell-based; details: Schistosoma mansoni
Description: as §1, §2, §3, §4, §5

S. mansoni schistosomula [4] = experiment: Larval HTS and larval dose response (image-based phenotype and motility of schistosomula); type: cell-based, Schistosoma mansoni; design: Motility score: scale not given here; details: for Motility score / Phenotype score: 10μM control wells; for EC50: Schistosoma mansoni, 72 h, 3 day assay, geometric mean
Description: Experiments were performed using the Puerto Rican strain of S. mansoni maintained in Biomphalaria glabrata and CD1 mice. The strain of snail was one bred by Prof Mike Doenhoff (Nottingham University) for high susceptibility to S. mansoni and ease of breeding in large numbers to high density. Careful attention was paid to controlling infections with rotifers which otherwise would contaminate the HTS schistosomula preparations as well as affecting snail viability. This included recovery of egg masses on short length pieces of polypropylene tubing placed into the breeding tanks and treatment of these with 3 x 10 seconds immersion in 70% ethanol with 3 minutes soaking in clean water in between alcohol treatments. Schistosomula were mechanically prepared as previously described with the modification of using a 45% and 70% Percoll gradient, and the cercarial heads recovered from the 70% layer. All centrifugation steps were done at 350x g. The schistosomula generated were then incubated overnight in M169 supplemented with 100U/ml Penicillin, 300μg/ml Streptomycin, 0.25μg/ml Fungizone (Amphotericin B) (Gibco, UK) and 5% Foetal Calf serum.
The larval HTS was run as described previously. Compound libraries were provided in 384 well plates as liquid either (i) small volumes in polypropylene 384 V-bottom storage plates (Greinerbio-one) that were diluted and 500nL dispensed into black 384 imaging plates (ViewPlate 6007460; PerkinElmer) using the Biomek FxP (Beckman Coulter) or (ii) in an assay-ready format from which a 40nL volume was transferred into wells of imaging plates. […] Therefore, to prevent fungal contamination 0.25μg/ml (0.27μM) of amphotericin B (AMP-B) was added to cultures both during the overnight culture prior to plating and during the 3 day assay.
The primary HTS and subsequent juvenile and adult screens were run as single point (SP) assays at 10–12.5μM depending on the concentrations in the compound collections. Compounds were tested in duplicate. Where necessary, repeat testing was carried out on re-supplied liquid samples.
as §4, §5

Pyoellii = tested on: Pyoellii; design: method as in ChEMBL; details: reported by Novartis in Science paper; ref ChEMBL; cited from earlier work
P. falciparum = tested on: P. falciparum; design: method as in Pubchem; details: ref Pubchem; cited from earlier work
S. mansoni schistosomula [5] = tested on: S. mansoni schistosomula; design: method as in PMID 19597541, PMID 20668553; details: cited from earlier work
TrxR1 = tested on: TrxR1; design: method as in ChEMBL; details: ref ChEMBL; cited from earlier work
TRPC4 = tested on: TRPC4; design: method as in ChEMBL; details: ref ChEMBL; cited from earlier work
[6] = 24 h, day 1, read-out: Juvenile (% motility reduction) DAY 1
[7] = 120 h, day 5, read-out: Juvenile (% motility reduction) DAY 5
[8] = first value of cell, geometric mean, * n = 1
[9] = 24 h, day 1, read-out: Adult % motility reduction DAY 1
[10] = 120 h, day 5, read-out: Adult % motility reduction DAY 5
[11] = Enamine library plates, negative control adjusted to zero
[12] = GSK library plates, negative control adjusted to zero
[13] = MMV library plates, mean ±SD, negative control adjusted to zero
[14] = MMV library plates, negative control adjusted to zero
[15] = Pfizer library plates, negative control adjusted to zero
[16] = value in parentheses (second sample; solid vs original liquid sample)
[17] = MRC-5 cells, first value of cell, 72 hours, read-out: MRC5 CC50
[18] = MRC-5 cells, value in parentheses (second sample; solid vs original liquid sample), read-out: MRC5 CC50

Compound | inhibition at 12.5 µM [2, 6] | inhibition at 12.5 µM [2, 7] | EC50 [2, 8] | inhibition at 12.5 µM (S. mansoni adult worms; [9]) | inhibition at 12.5 µM (S. mansoni adult worms; [10]) | EC50 (S. mansoni adult worms; first value of cell, * n = 1) | EC50 (S. mansoni schistosomula [4]) | EC50 [2, 16] | CC50 at 72 h [3, 17] | EC50 (S. mansoni adult worms; [16]) | other results
O=C(C1CCCCC1)N1CC(=O)N2CCc3ccccc3C2C1 (centres unmarked) [Praziquantel] | 57% | 58.4% | 4.7 µM | 76% | 88% | 0.3 µM | 1900 nM |  |  |  | Motility score (S. mansoni schistosomula [1]): -0.53 ± 0.10; Phenotype score (S. mansoni schistosomula [1]): -0.21 ± 0.12; CC50 at 72 h ([3]; MRC5 CC50): > 50 µM; Motility score (S. mansoni schistosomula [4]; +AMP-B (0.25μg/ml)): -0.57 ± 0.10; Phenotype score (S. mansoni schistosomula [4]; +AMP-B (0.25μg/ml)): -0.38 ± 0.08; Motility score (S. mansoni schistosomula [4]; [11]): -0.52 ±0.08; Phenotype score (S. mansoni schistosomula [4]; [11]): -0.35 ±0.09; Motility score (S. mansoni schistosomula [4]; [12]): -0.67 ±0.12; Phenotype score (S. mansoni schistosomula [4]; [12]): -0.50 ±0.10; Phenotype score (S. mansoni schistosomula [4]; [13]): -0.37 ±0.09; Motility score (S. mansoni schistosomula [4]; [14]): -0.57 ±0.10; Motility score (S. mansoni schistosomula [4]; [15]): -0.63 ±0.07; Phenotype score (S. mansoni schistosomula [4]; [15]): -0.37 ±0.04
COc1ccc(-c2nnc3ccc(-c4cccc(C(C)C)c4)cn23)cc1OC [compound 1507] | 75% | 75% | 4 µM | 75% | 88% | 1.6 µM | 6600 nM | 9.8 µM | 18.6 µM | 3 µM | 
c1ccc(-c2[nH]c3ccccc3c2C(c2ccccn2)N2CCCC2)cc1 (centres unmarked) [compound 1956] | 75% | 100% | 2.5 µM | 56% | 81% | 3.2 µM | 500 nM | 3.7 µM | > 50 µM | 11.8 µM | 
c1ccc(-c2cc(N3CCN(c4ccccn4)CC3)nc(-c3ccccn3)n2)nc1 [CHEMBL579352] |  |  |  |  |  |  |  |  |  |  | activity vs Pyoellii (Pyoellii): 17.5 nM; activity vs two Pfalciparum strains (P. falciparum): < 100 nM
Cc1c(-c2cnccn2)ssc1=S [Oltipraz] | 51% | 100% | 0.8 µM | 50% | 95% | 0.85 µM | 500 nM |  |  |  | CC50 at 72 h ([3]; MRC5 CC50): > 50 µM; Motility score (S. mansoni schistosomula [4]; [11]): -0.91 ±0.04; Phenotype score (S. mansoni schistosomula [4]; [11]): -0.49 ±0.13; Motility score (S. mansoni schistosomula [4]; [12]): -0.93 ±0.03; Phenotype score (S. mansoni schistosomula [4]; [12]): -0.64 ±0.06; Phenotype score (S. mansoni schistosomula [4]; [13]): -0.55 ±0.06; Motility score (S. mansoni schistosomula [4]; [14]): -0.95 ±0.02; Motility score (S. mansoni schistosomula [4]; [15]): -0.94 ±0.02; Phenotype score (S. mansoni schistosomula [4]; [15]): -0.56 ±0.08
Cc1ccccc1C(=O)N1N=C(Nc2ccccc2)SC1(C)C [compound 1355] | 75% | 75% | 5.8 µM | 75% | 100% | 5.3 µM | 6700 nM | 14.3 µM | > 50 µM | 11.2 µM | CC50 at 72 h [3, 18]: 33.8 µM
c1ccc(Oc2ccc(-c3cncc(-c4ccc5[nH]ccc5c4)n3)cc2)cc1 [compound 2045] | 50% | 100% | 2.1 µM | 37% | 88% | 3.7 µM | 1400 nM | 3.6 µM | 20 µM | 11 µM | 
Clc1ccc(SCc2cc(N3CCCC3)nc(-c3ccccn3)n2)cc1 [compound 1716] | 0% | 84% | 11 µM | 64% | 98% | 2.8 µM | 300 nM | 9.5 µM | > 50 µM | 5.4 µM | CC50 at 72 h [3, 18]: > 50 µM
COc1ccccc1NC1=NN=C(c2cccc(N3CCCC3=O)c2)CS1 [compound 2389] | 0% | 100% | 5.1 µM | 12.5% | 100% | 6 µM | 6100 nM | 5 µM | > 50 µM | 7.1 µM | CC50 at 72 h [3, 18]: > 50 µM
COc1ccc(-c2cnc3cnc(-c4cccc(OC(C)C)c4)cn23)cc1 [compound 1945] | 75% | 75% | 5.7 µM | 75% | 75% | 4.9 µM | 6700 nM | 13.7 µM | 40.1 µM |  | 
C[C@@H]1[C@H](O)[C@@H](C)/C=C/C=C/C=C/C=C/C=C/C=C/C=C/[C@H](O[C@@H]2O[C@H](C)[C@@H](O)[C@H](N)[C@@H]2O)C[C@@H]2O[C@](O)(C[C@@H](O)C[C@@H](O)[C@H](O)CC[C@@H](O)C[C@@H](O)CC(=O)O[C@H]1C)C[C@H](O)[C@H]2C(=O)O [AMP-B, amphotericin B] |  |  |  |  |  |  |  |  |  |  | concentrations reported to have lethal activity (S. mansoni schistosomula [5]): 1 to 10 µM
CCOC(=O)C1CCN(C(c2ccccn2)c2c(C)[nH]c3ccccc23)CC1 (centres unmarked) [CHEMBL1390809] |  |  |  |  |  |  |  |  |  |  | activity vs TrxR1 (TrxR1): 1.5 µM; activity as an activator of TRPC4 (TRPC4): 5 to 10 µM
